How the values were obtained:
[1] = Solubility in a solution comprising 1.5% (w/w) polysorbate 20; type: physicochemical; conditions: aqueous solution with 1.5% (w/w) polysorbate 20, aqueous with cosolvent or surfactant or cyclodextrin; 1.5% (w/w) polysorbate 20 at 40° C., pH 7
Excerpt: These represent significant differences in the water solubility of the aforementioned prodrugs.

Solubility in water = type: physicochemical
Procedure: The present invention combines particle populations of at least two distinct aripiprazole prodrugs. In a preferred embodiment the composition comprises a particle population of aripiprazole lauroxil and aripiprazole cavoxil particles. The physical and chemical properties of the aripiprazole prodrugs within the scope of the present invention can vary considerably. For instance, aripiprazole cavoxil was determined to have a solubility in water of less than about 1 μg/ml, whereas aripiprazole lauroxil was determined to have a solubility of less than about 4 ng/mL.

| Compound | solubility [1] | solubility (Solubility in water) |
| --- | --- | --- |
| CCCCCC(=O)OCN1C(=O)CCc2ccc(OCCCCN3CCN(c4cccc(Cl)c4Cl)CC3)cc21 [aripiprazole cavoxil, (7-(4-(4-(2,3-Dichlorophenyl)piperazin-1-yl)butoxy)-2-oxo-3,4-dihydroquinolin-1(2H)yl)methyl hexanoate] | < 50 µg/mL | < 1 µg/mL |
| CCCCCCCCCCCC(=O)OCN1C(=O)CCc2ccc(OCCCCN3CCN(c4cccc(Cl)c4Cl)CC3)cc21 [aripiprazole lauroxil, Dodecanoic acid, [7-[4-[4-(2,3-dichlorophenyl)-1-piperazinyl]butoxy]-3,4-dihydro-2-oxo-1(2H)-quinolinyl]methyl ester] | < 2 µg/mL | < 0.004 µg/mL |
